Earlier results on 5 molecules are cited in patent US20160213673A1, “ENDURANCE FORMULATION AND USE” (priority 2015, published 2016).

The conditions of data set [1]: during the first 15 minutes of exercise.
For data set [2] the following is noted: following 4 mg/kg caffeine consumption.
In another data set the target is TRVP-1 (Homo sapiens, UniProt Q8NER1).
Data set [3] deals with UCP3 mRNA expression in skeletal muscle. The following applies: occurred within minutes of capsinoid ingestion.
Assay in data set [4]: not given
The source holds these as a separate data set.

For data set [5] the following is noted: 3 mg of 9 mg of dihydrocapsiate per day for 28 days.
The conditions of data set [6]: exhausted rats.
[7] abbreviates: following capsiate administration.

Sequence of TRVP-1 (Q8NER1 whole entry): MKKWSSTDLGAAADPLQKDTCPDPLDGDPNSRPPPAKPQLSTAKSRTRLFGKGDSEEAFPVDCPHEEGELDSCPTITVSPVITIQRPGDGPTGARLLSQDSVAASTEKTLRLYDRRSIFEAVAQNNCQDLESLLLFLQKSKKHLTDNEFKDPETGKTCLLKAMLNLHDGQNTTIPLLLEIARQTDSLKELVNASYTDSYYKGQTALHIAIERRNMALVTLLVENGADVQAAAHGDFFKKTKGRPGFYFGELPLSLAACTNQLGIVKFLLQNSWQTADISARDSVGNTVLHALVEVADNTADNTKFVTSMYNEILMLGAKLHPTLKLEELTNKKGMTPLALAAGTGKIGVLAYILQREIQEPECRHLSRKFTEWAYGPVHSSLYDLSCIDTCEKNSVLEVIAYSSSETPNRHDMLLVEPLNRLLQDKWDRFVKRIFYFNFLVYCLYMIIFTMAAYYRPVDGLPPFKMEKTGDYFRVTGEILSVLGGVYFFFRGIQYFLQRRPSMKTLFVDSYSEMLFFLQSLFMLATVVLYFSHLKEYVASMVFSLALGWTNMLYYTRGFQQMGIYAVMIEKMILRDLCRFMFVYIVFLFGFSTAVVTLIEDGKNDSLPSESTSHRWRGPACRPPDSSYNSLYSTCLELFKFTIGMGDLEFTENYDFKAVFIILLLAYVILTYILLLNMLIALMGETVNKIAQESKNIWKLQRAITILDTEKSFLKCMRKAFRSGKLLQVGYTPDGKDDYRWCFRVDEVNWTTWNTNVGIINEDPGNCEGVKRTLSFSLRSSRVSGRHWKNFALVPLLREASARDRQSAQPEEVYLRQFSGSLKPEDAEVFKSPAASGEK

Consider `Cn1c(=O)c2c(ncn2C)n(C)c1=O` [caffeine], for which the “decrease of glycogen utilization” value in data set [1] is on record as no more than 50%. Moreover, the arginase activity result with arginase is “inhibits arginase activity”. Besides, in data set [2], the “plasma free fatty acids” value was “greater increase” and the “respiratory quotient (RQ)” value was “significantly lower”.

Consider `COc1cc(COC(=O)CCCC/C=C/C(C)C)ccc1O` [capsiate], for which the “rates of TRVP-1 activation, capsiate compared with dihydrocapsiate” value at TRVP-1 is “similar”. In addition, where the note is “mouse, in vivo”, the “ATP cost of twitch force generation” value is “reduced” and the twitch force-generating capacity result is “increased”. In addition, the “oxidative phosphorylation during rest” value (rest) was “not affected”. Also, where the note is “when exercising”, the “contribution of oxidative phosphorylation to total energy turnover” value is recorded as “increased” and the glycolysis result was “reduction”. Moreover, the “persistence of UCP3 mRNA expression in skeletal muscle” value in data set [3] was 2 h. Further, in data set [4] (after 30 min of swimming), the “residual glycogen in the gastrocnemius muscle” value is on record as “higher”, the “serum free fatty acid concentration” value is “tended to be higher” and the “serum lactic acid concentration” value is reported as “significantly lower”. In data set [4] (setting [7]), the carbohydrate oxidation entry is reported as “reduced”, the fat oxidation result is recorded as “significantly higher” and the “oxygen consumption (aerobic)” value is listed as “significantly higher”. For the same molecule, in data set [4] (mice), the “swimming time versus mice without capsiate” value was “significantly longer”.

In the case of `COc1cc(COC(=O)CCCCCCC(C)C)ccc1O` [dihydrocapsiate], the “rates of TRVP-1 activation, capsiate compared with dihydrocapsiate” value on TRVP-1 is given as “similar”. Further, in data set [5], the “post prandial energy expenditure” value is reported as “significant increase” and the “respiratory quotient (RQ) versus placebo group” value is recorded as “significantly lower”.

With `N=C(N)NCCC[C@H](N)C(=O)O` [arginine], the ammonia toxicity result in data set [6] was “mitigate ammonia toxicity”.

In the case of `NC(=O)NCCC[C@H](N)C(=O)O` [citrulline], the ammonia toxicity entry in data set [6] is given as “mitigate ammonia toxicity”.
